In patent US11110139B2, “Application of anthocyanin extract in preparing pharmaceutical composition for preventing and treating cardiac toxicity induced by anthracyclines and pharmaceutical composition” (Northwest Institute of Plateau Biology, Chinese Academy of …, priority 2017, dated 2021):

Assays:
[1] = test system: rat cardiomyocyte cell line H9c2; assay: Aggregated level of cardiomyocyte ROS (DCFH-DA, flow cytometer); format: cell-based; details: H9c2, 20 μM DOX alone, 24 h
Protocol: A rat cardiomyocyte cell line H9c2: a DMEM culture medium (containing 10% new-born calf serum, 2 mM glutamate and 1% streptomycin/penicillin) was employed to culture, and a culture condition was an aseptic environment at 37° C. and 5% CO2. The culture medium was replaced once every 2-3 d, and when cells were cultured for 24 h and 80% were aggregated, a medicament treatment was performed. A control group, a model group (containing 20 μM DOX), and a nitraria anthocyanin extract experimental group (containing 20 μM DOX and 5-500 μg/mL nitraria anthocyanin extract) were respectively provided, and after they were treated for 24 h, 2′, 7′-dichlorodihydro-fluorescein diacetate (DCFH-DA, 20 μM) was added to incubate for 20 min at 37° C., and a flow cytometer was employed to detect an aggregated level of cardiomyocyte ROS. According to experimental results (as shown in FIG. 8), after the 20 μM DOX is treated for 24 h, the aggregated level of the cardiomyocyte ROS is increased to 3.5 times of a normal cell; and after the DOX and the 5-500 μg/mL nitraria anthocyanin extract are co-treated for 24 h, the aggregated level of the cardiomyocyte ROS only is 2.16-3.29 times of the normal cell.

[2] = test system: bcl-2, bax, caspase-3 and caspase-9 protein expression in H9c2; assay: Western blot of bcl-2, bax, caspase-3 and caspase-9 in H9c2; format: cell-based, rat; details: H9c2, 20 μM DOX alone, 24 h
Protocol: A rat cardiomyocyte cell line H9c2: a DMEM culture medium (containing 10% new-born calf serum, 2 mM glutamate and 1% streptomycin/penicillin) was employed to culture, and a culture condition was an aseptic environment at 37° C. and 5% CO2. The culture medium was replaced once every 2-3 d, and when cells were cultured for 24 h and 80% were aggregated, a medicament treatment was performed. A control group, a model group (containing 20 μM DOX), and a nitraria anthocyanin extract experimental group (containing 20 μM DOX and 5-500 μg/mL nitraria anthocyanin extract) were respectively provided, and after they were treated for 24 h, the cells were scrapped, and were collected by centrifugation; and after being cleaned by a phosphate buffer, the cells were resuspended in a lysis buffer. After cell debrises were removed by the centrifugation, a supernatant was collected and a soluble protein concentration was determined using a BCA protein concentration assay kit. A protein solute, after being separated by 12% SDS-PAGE electrophoresis, was transferred to a PVDF membrane and thereafter was labeled by bcl-2, bax, caspase-3 and caspase-9 antibodies. An optical density of a band was determined by Quantity One software (v4.62, American Bio-Rad Company). And αβ-tubulin was taken as a protein sample loading internal reference substance.

[3] = test system: rat cardiomyocyte cell line H9c2; format: cell-based; details: 24 h, 20 μM
Protocol: (§1) A rat cardiomyocyte cell line H9c2: a DMEM culture medium (containing 10% new-born calf serum, 2 mM glutamate and 1% streptomycin/penicillin) was employed to culture, and a culture condition was an aseptic environment at 37° C. and 5% CO2. The culture medium was replaced once every 2-3 d, and when cells were cultured for 24 h and 80% were aggregated, a medicament treatment was performed. A control group, a model group (containing 20 μM DOX), and a nitraria anthocyanin extract experimental group (containing 20 μM DOX and 5-500 μg/mL nitraria anthocyanin extract) were respectively provided, after they were treated for 24 h, an extracellular fluid was collected, and LDH and CK levels in the extracellular fluid were detected by employing LDH and CK array kits.

[4] = test system: rat cardiomyocyte cell line H9c2; format: cell-based; details: 24 h, 20 μM; remark: listed apart in the source
Protocol: as §1, with “C02.” for “CO2.”, “provided, and” for “provided,”, “a change in cardiomyocyte apoptosis” for “an extracellular fluid”, “was” for “was collected, and LDH and CK levels in the extracellular fluid were”, “by a flow cytometer according to operating instructions of a kit by” for “by”, “an FITC-Annexin V/propidium iodide (PI) fluorescence double staining method.” for “LDH and CK array kits.”

[5] = test system: rat cardiomyocyte cell line H9c2; format: cell-based; details: 24 h, 20 μM; remark: listed apart in the source
Protocol: as §1, with “aggregated, was transferred to a 96-well plate with a cell density being 1×10^5/well; after the cells were continued to culture for 24 h,” for “aggregated,”, “provided, and” for “provided,”, “a cell viability” for “an extracellular fluid”, “was” for “was collected, and LDH and CK levels in the extracellular fluid were”, “an MTT method.” for “employing LDH and CK array kits.”

aggregated level of cardiomyocyte ROS, times of a normal cell [1]: 3.5 times
Bax/Bcl-2 protein expression ratio versus normal cell [2]: increased to two times of a normal cell
bax protein expression [2]: significantly increased
bcl-2 protein expression [2]: significantly reduced
protein expression of cut and activated caspase-3 [2]: significantly increased
protein expression of cut and activated caspase-9 [2]: significantly increased
CK level in the extracellular fluid, times of a normal cell [3]: 2.87 times
LDH level in the extracellular fluid, times of a normal cell [3]: 2.65 times
number of FITC-Annexin V positive cells [4]: 1.49%
Structure (SMILES): COc1cccc2c1C(=O)c1c(O)c3c(c(O)c1C2=O)C[C@@](O)(C(=O)CO)C[C@@H]3O[C@H]1C[C@H](N)[C@H](O)[C@H](C)O1 [DOX, doxorubicin]
cell viability, of a normal cell [5]: 62.12%
